In patent US10112929B2, “Lactams as inhibitors of rock” (BRISTOL-MYERS SQUIBB COMPANY, priority 2015, dated 2018):

target: ROCK2 (Homo sapiens (Human), UniProt O75116); test: biochemical
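Note: rho kinase enzyme reaction halted with EDTA, phospho- and non-phospho peptide separated for read-out, kinase activity inhibition derived across a dose-response series, DMSO under 2%.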

ROCK2, sequence (O75116 whole entry, species assumed): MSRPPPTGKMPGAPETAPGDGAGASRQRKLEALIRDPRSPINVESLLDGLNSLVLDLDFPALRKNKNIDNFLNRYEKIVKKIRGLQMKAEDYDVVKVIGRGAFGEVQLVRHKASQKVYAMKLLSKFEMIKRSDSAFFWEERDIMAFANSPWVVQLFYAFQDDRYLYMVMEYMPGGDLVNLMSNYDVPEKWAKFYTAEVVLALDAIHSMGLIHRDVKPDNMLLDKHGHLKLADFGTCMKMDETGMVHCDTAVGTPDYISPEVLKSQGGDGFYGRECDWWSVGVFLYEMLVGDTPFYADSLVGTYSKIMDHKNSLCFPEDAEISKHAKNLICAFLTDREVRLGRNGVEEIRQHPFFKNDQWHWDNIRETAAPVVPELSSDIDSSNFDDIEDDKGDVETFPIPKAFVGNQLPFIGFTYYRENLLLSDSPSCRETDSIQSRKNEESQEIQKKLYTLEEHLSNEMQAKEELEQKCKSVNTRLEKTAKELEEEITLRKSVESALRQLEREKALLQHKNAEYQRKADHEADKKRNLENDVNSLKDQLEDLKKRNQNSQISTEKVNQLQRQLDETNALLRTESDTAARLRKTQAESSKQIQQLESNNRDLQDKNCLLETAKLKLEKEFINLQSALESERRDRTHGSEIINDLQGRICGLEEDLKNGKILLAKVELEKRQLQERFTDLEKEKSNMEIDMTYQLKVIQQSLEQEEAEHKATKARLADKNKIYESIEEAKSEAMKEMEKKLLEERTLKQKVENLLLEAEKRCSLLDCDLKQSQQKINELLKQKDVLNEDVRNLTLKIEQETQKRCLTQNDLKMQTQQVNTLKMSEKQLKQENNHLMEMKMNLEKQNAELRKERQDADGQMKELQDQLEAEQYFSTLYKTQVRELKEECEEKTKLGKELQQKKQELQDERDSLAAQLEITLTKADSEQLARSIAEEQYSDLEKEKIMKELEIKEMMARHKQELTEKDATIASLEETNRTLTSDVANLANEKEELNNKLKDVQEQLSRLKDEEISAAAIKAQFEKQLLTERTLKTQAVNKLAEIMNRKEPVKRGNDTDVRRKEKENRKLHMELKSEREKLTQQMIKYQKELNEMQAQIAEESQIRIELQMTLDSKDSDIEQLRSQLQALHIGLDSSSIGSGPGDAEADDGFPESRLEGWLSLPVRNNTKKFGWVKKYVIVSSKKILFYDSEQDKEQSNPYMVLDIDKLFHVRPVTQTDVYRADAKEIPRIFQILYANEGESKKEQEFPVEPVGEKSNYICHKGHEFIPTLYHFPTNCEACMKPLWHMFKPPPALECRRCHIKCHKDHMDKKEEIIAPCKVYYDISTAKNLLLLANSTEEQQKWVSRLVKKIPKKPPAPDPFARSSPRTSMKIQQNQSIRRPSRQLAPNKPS

Structure (SMILES) | IC50 [nM]
CNc1nc(N2CCC(Nc3cccc(OC)c3)C2=O)ccc1-c1cn[nH]c1 (single isomer, unassigned) [Example 253, 3-((3-methoxyphenyl)amino)-1-(6-(methylamino)-5-(1H-pyrazol-4-yl)pyridin-2-yl)pyrrolidin-2-one] | 10 to 100
COc1cccc(NC2CCN(c3ccc(-c4cn[nH]c4)nc3)C2=O)c1 (single isomer, unassigned) [Example 297, 1-(6-(1H-pyrazol-4-yl)pyridin-3-yl)-3-((3-methoxyphenyl)amino)pyrrolidin-2-one] | 10 to 100
COc1cc(NC2CCN(c3ccc(-c4cn[nH]c4)nc3)C2=O)ccc1F (single isomer, unassigned) [Example 299, 1-(6-(1H-pyrazol-4-yl)pyridin-3-yl)-3-((4-fluoro-3-methoxyphenyl)amino)pyrrolidin-2-one] | 10 to 100
COc1cc(F)cc(NC2CCN(c3ccc(-c4cn[nH]c4)nc3)C2=O)c1 (single isomer, unassigned) [Example 301, 1-(6-(1H-pyrazol-4-yl)pyridin-3-yl)-3-((3-fluoro-5-methoxyphenyl)amino)pyrrolidin-2-one] | 10 to 100
COc1ccc(F)c(NC2CCN(c3ccc(-c4cn[nH]c4)cn3)C2=O)c1 (single isomer, unassigned) [Example 303, 1-(5-(1H-pyrazol-4-yl)pyridin-2-yl)-3-((2-fluoro-5-methoxyphenyl)amino)pyrrolidin-2-one] | 10 to 100
COc1cccc(NC2CCN(c3ccc(-c4cn[nH]c4)c(F)c3F)C2=O)c1 (single isomer, unassigned) [Example 305, 1-(2,3-difluoro-4-(1H-pyrazol-4-yl)phenyl)-3-((3-methoxyphenyl)amino) pyrrolidin-2-one] | 10 to 100
COc1cc(F)cc(NC2CCN(c3ccc(-c4cn[nH]c4)c(F)c3F)C2=O)c1 (single isomer, unassigned) [Example 310, 1-(2,3-difluoro-4-(1H-pyrazol-4-yl)phenyl)-3-((3-fluoro-5-methoxyphenyl)amino)pyrrolidin-2-one] | < 10
CCc1nc(N2CCC(Nc3cccc(OC)c3)C2=O)ccc1-c1cn[nH]c1 (single isomer, unassigned) [Example 313, 1-(6-ethyl-5-(1H-pyrazol-4-yl)pyridin-2-yl)-3-((3-methoxyphenyl)amino) pyrrolidin-2-one] | < 10
CCc1nc(N2CCC(Nc3cc(F)cc(OC)c3)C2=O)ccc1-c1cn[nH]c1 (single isomer, unassigned) [Example 315, 1-(6-ethyl-5-(1H-pyrazol-4-yl)pyridin-2-yl)-3-((3-fluoro-5-methoxyphenyl)amino) pyrrolidin-2-one] | 10 to 100
CCc1nc(N2CCC(Nc3cc(F)cc(OC)c3)C2=O)ccc1-c1cn[nH]c1 (single isomer, unassigned) [Example 316, 1-(6-ethyl-5-(1H-pyrazol-4-yl)pyridin-2-yl)-3-((3-fluoro-5-methoxyphenyl)amino) pyrrolidin-2-one] | < 10
CCc1nc(N2CCC(Nc3ccc(F)c(OC)c3)C2=O)ccc1-c1cn[nH]c1 (single isomer, unassigned) [Example 317, 1-(6-ethyl-5-(1H-pyrazol-4-yl)pyridin-2-yl)-3-((4-fluoro-3-methoxyphenyl)amino) pyrrolidin-2-one] | < 10
CCc1nc(N2CCC(Nc3ccc(F)c(OC)c3)C2=O)ccc1-c1cn[nH]c1 (single isomer, unassigned) [Example 318, 1-(6-ethyl-5-(1H-pyrazol-4-yl)pyridin-2-yl)-3-((4-fluoro-3-methoxyphenyl)amino) pyrrolidin-2-one] | 10 to 100
O=C1C(Nc2cccc(OCC3CC3)c2)CCN1c1ccc(-c2cn[nH]c2)cn1 (single isomer, unassigned) [Example 320, 1-(5-(1H-pyrazol-4-yl)pyridin-2-yl)-3-((3-(cyclopropylmethoxy)phenyl)amino) pyrrolidin-2-one] | 100 to 2200
COc1cc(NC2CCN(c3ccc(-c4cn[nH]c4)c(F)c3)C2=O)ccc1F (single isomer, unassigned) [Example 332, 3-((4-fluoro-3-methoxyphenyl)amino)-1-(3-fluoro-4-(1H-pyrazol-4-yl)phenyl) pyrrolidin-2-one] | < 10
COc1ccc(F)c(NC2CCN(c3ccc(-c4cn[nH]c4)c(F)c3)C2=O)c1 (single isomer, unassigned) [Example 334, 1-(3-fluoro-4-(1H-pyrazol-4-yl)phenyl)-3-((2-fluoro-5-methoxyphenyl)amino) pyrrolidin-2-one] | 10 to 100
COc1cc(F)cc(NC2CCN(c3ccc(-c4cn[nH]c4)cc3F)C2=O)c1 (single isomer, unassigned) [Example 338, 1-(2-fluoro-4-(1H-pyrazol-4-yl)phenyl)-3-((3-fluoro-5-methoxyphenyl)amino) pyrrolidin-2-one] | 10 to 100

More lines, now with the values ahead:

IC50 [nM] | Structure (SMILES)
< 10 | COc1cc(F)cc(NC2CCN(c3ccc(-c4cn[nH]c4)nc3)C2=O)c1 (single isomer, unassigned) [Example 302, 1-(6-(1H-pyrazol-4-yl)pyridin-3-yl)-3-((3-fluoro-5-methoxyphenyl)amino)pyrrolidin-2-one]
< 10 | COc1cccc(NC2CCN(c3ccc(-c4cn[nH]c4)c(F)c3F)C2=O)c1 (single isomer, unassigned) [Example 306, 1-(2,3-difluoro-4-(1H-pyrazol-4-yl)phenyl)-3-((3-methoxyphenyl)amino) pyrrolidin-2-one]
10 to 100 | COc1cc(NC2CCN(c3ccc(-c4cn[nH]c4)c(F)c3F)C2=O)ccc1F (single isomer, unassigned) [Example 307, 1-(2,3-difluoro-4-(1H-pyrazol-4-yl)phenyl)-3-((4-fluoro-3-methoxyphenyl)amino)pyrrolidin-2-one]
10 to 100 | COc1cc(F)cc(NC2CCN(c3ccc(-c4cn[nH]c4)c(F)c3F)C2=O)c1 (single isomer, unassigned) [Example 309, 1-(2,3-difluoro-4-(1H-pyrazol-4-yl)phenyl)-3-((3-fluoro-5-methoxyphenyl)amino)pyrrolidin-2-one]
< 10 | COc1cccc(NC2CCN(c3cc(F)c(-c4cn[nH]c4)c(F)c3)C2=O)c1 (single isomer, unassigned) [Example 311, 1-(3,5-difluoro-4-(1H-pyrazol-4-yl)phenyl)-3-((3-methoxyphenyl)amino)pyrrolidin-2-one]
10 to 100 | O=C1C(Nc2cccc(OCC3CC3)c2)CCN1c1ccc(-c2cn[nH]c2)cn1 (single isomer, unassigned) [Example 319, 1-(5-(1H-pyrazol-4-yl)pyridin-2-yl)-3-((3-(cyclopropylmethoxy)phenyl)amino) pyrrolidin-2-one]
100 to 2200 | O=C1C(Nc2cccc(OC(F)F)c2)CCN1c1ccc(-c2cn[nH]c2)cn1 (single isomer, unassigned) [Example 321, 1-(5-(1H-pyrazol-4-yl)pyridin-2-yl)-3-((3-(difluoromethoxy)phenyl)amino) pyrrolidin-2-one]
10 to 100 | O=C1C(Nc2cccc(OC(F)F)c2)CCN1c1ccc(-c2cn[nH]c2)cn1 (single isomer, unassigned) [Example 322, 1-(5-(1H-pyrazol-4-yl)pyridin-2-yl)-3-((3-(difluoromethoxy)phenyl)amino) pyrrolidin-2-one]
< 10 | COc1cccc(NC2C(=O)N(c3ccc(-c4cn[nH]c4)cc3)C[C@H]2CO)c1 (single isomer, unassigned) [Example 323]
10 to 100 | COc1cccc(NC2CCN(c3ccc(-c4cn[nH]c4)cc3)C2=O)c1C (single isomer, unassigned) [Example 325, 1-(4-(1H-pyrazol-4-yl)phenyl)-3-((3-methoxy-2-methylphenyl)amino) pyrrolidin-2-one]
10 to 100 | COc1cccc(NC2CCN(c3ccc(-c4cn[nH]c4)cc3F)C2=O)c1 (single isomer, unassigned) [Example 328, 1-(2-fluoro-4-(1H-pyrazol-4-yl)phenyl)-3-((3-methoxyphenyl)amino)pyrrolidin-2-one]
10 to 100 | COc1cc(NC2CCN(c3ccc(-c4cn[nH]c4)cc3F)C2=O)ccc1F (single isomer, unassigned) [Example 330, 3-((4-fluoro-3-methoxyphenyl)amino)-1-(2-fluoro-4-(1H-pyrazol-4-yl)phenyl) pyrrolidin-2-one]
< 10 | COc1c(F)cccc1NC1CCN(c2ccc(-c3cn[nH]c3)c(F)c2)C1=O (single isomer, unassigned) [Example 336, 3-((3-fluoro-2-methoxyphenyl)amino)-1-(3-fluoro-4-(1H-pyrazol-4-yl)phenyl) pyrrolidin-2-one]
100 to 2200 | COc1c(F)cccc1NC1CCN(c2ccc(-c3cn[nH]c3)c(F)c2)C1=O (single isomer, unassigned) [Example 337, 3-((3-fluoro-2-methoxyphenyl)amino)-1-(3-fluoro-4-(1H-pyrazol-4-yl)phenyl) pyrrolidin-2-one]
100 to 2200 | COc1ccc(F)c(NC2CCN(c3ccc(-c4cn[nH]c4)cc3F)C2=O)c1 (single isomer, unassigned) [Example 340, 1-(2-fluoro-4-(1H-pyrazol-4-yl)phenyl)-3-((2-fluoro-5-methoxyphenyl)amino) pyrrolidin-2-one]
10 to 100 | COc1ccc(F)c(NC2CCN(c3ccc(-c4cn[nH]c4)cc3F)C2=O)c1 (single isomer, unassigned) [Example 341, 1-(2-fluoro-4-(1H-pyrazol-4-yl)phenyl)-3-((2-fluoro-5-methoxyphenyl)amino) pyrrolidin-2-one]
100 to 2200 | COc1c(F)cccc1NC1CCN(c2ccc(-c3cn[nH]c3)cc2F)C1=O (single isomer, unassigned) [Example 342, 3-((3-fluoro-2-methoxyphenyl)amino)-1-(2-fluoro-4-(1H-pyrazol-4-yl)phenyl) pyrrolidin-2-one]
100 to 2200 | COc1ccc(NC2CCN(c3ccc(-c4cn[nH]c4)cc3F)C2=O)cc1F (single isomer, unassigned) [Example 344, 1-(2-fluoro-4-(1H-pyrazol-4-yl)phenyl)-3-((3-fluoro-4-methoxyphenyl)amino) pyrrolidin-2-one]
